Measured values published in patent publication US9606132B2, “Methods of monitoring adherence to lurasidone therapy” (Ameritox, Ltd., priority 2013, dated 2017).
Where two headings read alike, the source gives them in different places. Values belong to the compound of their own block, whether it stands above or below them.

Legend:
[1] = in vivo
Description: Urine samples of normally metabolizing human subjects who were known to be taking chronic doses of lurasidone were tested for the presence of lurasidone and eleven metabolites (excluding isomeric metabolites). Each patient sample was analyzed twice to ensure accuracy. Due to the high probability for false identification of isobars, MS/MS data was collected and selectively looked at to add confidence to the identification.

[2] = cited from earlier work; for presence in serum: 40 mg oral dosing of radiolabelled lurasidone
[3] = cited from earlier work; for presence in serum: mice, rats, dogs (M8 also monkeys), 10 mg/kg oral administration of radiolabelled lurasidone

SMILES: O=C(O)C1CCCCC1CN1C(=O)C2C(C1=O)[C@@H]1CC[C@H]2C1O (some centres unmarked) [M5]
detectability in human urine (Example 1) ([1]; human): neither metabolite ID-20220 (M5) nor metabolite ID-20219 (M11) were found to be excreted through human urine in detectable amounts

SMILES: O=C1C2C(C(=O)N1CC1CCCCC1CN1CCN(c3nsc4ccccc34)CC1)[C@@H]1CC[C@H]2C1O (some centres unmarked) [M8/M9, Hydroxy-Lurasidone]
detectability in human urine (Example 1) [1]: present in detectable quantities in each test of each subject's urine sample

SMILES: O=C1C2C(C(=O)N1CC1CCCCC1CN1CCN(c3nsc4ccccc34)CC1)[C@@H]1CC[C@H]2C1O (some centres unmarked) [M8]
presence in serum ([2]; humans): present in an unspecified low amount
presence in serum [3]: present in an unspecified low amount

SMILES: O=C1C2C(C(=O)N1CC1CCCCC1CN1CCN(c3nsc4ccccc34)CC1)[C@@H]1CC[C@H]2C1O (some centres unmarked) [M9]
identification in serum ([3]; rats and dogs): identified in rats and dogs

detectability in human urine (Example 1) [1]: not present at any significant amount
SMILES: O=C1C2C(C(=O)N1CC1CCCCC1CN1CCN(c3n[s+]([O-])c4ccccc34)CC1)[C@H]1CC[C@@H]2C1 (some centres unmarked) [M10]

Lurasidone Metabolite Distribution in Human Urine (qualitative identification) [1]: ✓*
SMILES: O=C(O[C@@H]1O[C@H](C(=O)O)[C@@H](O)[C@H](O)[C@H]1O)C1CCCCC1CN1C(=O)C2C(C1=O)[C@H]1CC[C@@H]2C1 (some centres unmarked) [M11 Gluc]

Lurasidone Metabolite Distribution in Human Urine (qualitative identification) [1]: ✓^*
SMILES: O=C(O)C1CCCCC1CN1C(=O)C2C(C1=O)[C@H]1CC[C@@H]2C1 (some centres unmarked) [M11, 2-{(3,5-Dioxo-4-azatricyclo[5.2.1.0^2,6]dec-4-yl)methyl}cyclohexanecarboxylic acid]
detectability in human urine (Example 1) ([1]; human): neither metabolite ID-20220 (M5) nor metabolite ID-20219 (M11) were found to be excreted through human urine in detectable amounts
share of total radioactivity in plasma ([2]; plasma, post oral dosing): 24%

SMILES: CSc1ccccc1C(=N)N1CCN(CC2CCCCC2CN2C(=O)C3C(C2=O)[C@H]2CC[C@@H]3C2)CC1 (some centres unmarked) [M21, S-Methyl Lurasidone]
detectability in human urine (Example 1) [1]: present in detectable quantities in each test of each subject's urine sample
detection as circulating metabolite in serum ([3]; any of the animal models, radiolabelled lurasidone): did not detect

SMILES: [H]/N=C(/c1ccccc1SC)N1CCN(CC2CCCCC2CN2C(=O)C3C(C2=O)[C@@H]2CC[C@H]3C2O)CC1 (some centres unmarked) [M22, S-Methyl Hydroxy Lurasidone]
detectability in human urine (Example 1) [1]: present in detectable quantities in each test of each subject's urine sample
presence in serum ([2]; humans): present in an unspecified low amount
share of total drug-related exposure ([2]; humans): less than 10%
presence in serum [3]: present in an unspecified low amount
detection in other animal models ([3]; rabbits or monkeys): not detected in any amount
